Measurements: patent publication US20220390432A1, “METHODS OF CHARACTERIZING AND UTILIZING AGENT-CONDENSATE INTERACTIONS” (Whitehead Institute for Biomedical Research, priority 2019, published 2022)
Entries after “also recorded” stand apart in the source; their conditions may differ.

Assays:
[1] = tested on: MED1 condensates at MYC in MCF7 cells; assay: Immunofluorescence with DNA FISH, MED1 condensates at the MYC oncogene; format: cell-based, human; conditions: estrogen-starved MCF7 treated with estrogen or estrogen and tamoxifen
Description: MCF7 cells were grown in estrogen-free DMEM for 3 days on Poly-L-ornithine coated coverslips in 24 well plates at an initial seeding density of 50,000 cells per well. Cells were then treated with vehicle, 10 uM estradiol, or 10 uM estradiol and 5 uM 4-hydroxytamoxifen for 45 minutes.
Cells on cover slips were then fixed in 4% paraformaldehyde. Immunofluorescence was performed as described above. After incubating the cells with the secondary antibodies, cells were washed three times in PBS for 5 min at RT, fixed with 4% PFA in PBS for 10 min and washed three times in PBS. Cells were incubated in 70% ethanol, 85% ethanol and then 100% ethanol for 1 minute at RT. Probe hybridization mixture was made mixing […], of FISH Hybridization Buffer (Agilent G9400A), 1 μl of FISH probes (SureFISH 8q24.21 MYC 294 kb G101211R-8) and 2 μL of water.
5 μL of mixture was added on a slide and coverslip was placed on top (cell-side toward the hybridization mixture). Coverslip was sealed using rubber cement. Once rubber cement solidified, genomic DNA and probes were denatured at 78° C. for 5 minutes and slides were incubated at 16° C. in the dark O/N. The coverslip was removed from slide and incubated in pre-warmed Wash Buffer 1 (Agilent, G9401A) at 73° C. for 2 minutes and in Wash Buffer 2 (Agilent, G9402A) for 1 minute at RT. […]

ERα point mutations = conditions: reference (52); cited from earlier work
[2] = tested on: ERα-MED1 condensate at the Lac array in U2OS cells; assay: Lac array assay with tethered ER, MED1 immunofluorescence; format: cell-based, human; conditions: for effect on ER/MED1 condensate at the Lac array: tethered ER, estrogen
Source text: When the transcriptional apparatus is recruited to that site a mediator condensate is detectable by immunofluorescence (Middle) U20S-Lac cells were transfected with a construct expressing the Lac DBD fused to the ER LBD and GFP+/− a construct overexpressing MED1. […] (Right) Quantification of MED1 enrichment relative at the Lac array, error bars represent SD.
Constructs were assembled by NEB HIFI cloning in pSV2 mammalian expression vector containing an SV40 promoter driving expression of a mCherry-LacI fusion protein. The intrinsically disordered region of MED1, HP1α, or the activation domain of ESR1 was fused by the c-terminus to this recombinant protein, joined by the linker sequence […] (SEQ ID NO: 16). For experiments comparing FLTX1 enrichment at the array, U20S-Lac cells were plated onto chambered coverglass (1.5 Borosilicate Glass, Nunc Lab-Tek, 155409) and transfected with either MED1 IDR or HP1α constructs with lipofectamine 3000 (Thermofisher L3000015). After 24 hours, cells were treated with either 1 uM FLTX1 or vehicle (DMF). After 30 minutes, cells were imaged on the Zeiss LSM 880 confocal microscope with Airyscan detector with 63× objective at 37° C. For experiments with high MED1, cells grown in DMEM were plated on glass coverslips and transfected using lipofectamine 3000 (Thermofisher L3000015). A construct with a mammalian expression vector containing a PGK promoter driving the expression of MED1 fused to GFP was co-transfected in high MED1 conditions. […]
For analysis of Lac array data comparing MED1 or HP1α tethered, a region of interest was called using the signal in the Lac array (561 channel). The average fluorescent signal for FLTX1 (488 channel) was then measured in the region of interest and divided by the average fluorescence in the region of interest at the Lac array. […] For analysis of Lac array data for MED1 overexpression, enrichment was calculated by dividing the average fluorescent signal for MED1 immunofluorescence at the region of interest, defined by the ER tethered at the lac array, by MED1 immunofluorescence signal at a random nuclear region.

MED1 droplets = target: T1, MED1 droplets (Homo sapiens, UniProt Q15648); assay: In vitro droplet drug chase out experiment; format: binding; conditions: 100 μM FLTX1, 10-fold excess (1 mM) tamoxifen
T1 construct: MED1—amino acids 600-1581; 6xHis (N); made in house; host or cells: LOBSTR cells (E. coli)
Description: For chase-out experiments 5 μM labeled cisplatin-TR was added to a MED1 droplets reaction (10 μM MED1, 50 mM Tris-HCl pH 7.5, 10% glycerol, 1 mM DTT, 10% PEG) in order to form MED1 droplets concentrated with Cisplatin-TR. Unlabeled transplatin or unlabeled cisplatin (vehicle, 10 μM, 100 μM, or 500 μM) were added to the droplet mixture and the amount of labeled cisplatin-TR remaining in the droplet is measured after chase out. 100 μM fluorescent FLTX1 was added to a MED1 droplets reaction (10 μM MED1, 50 mM Tris-HCl pH 7.5, 10% glycerol, 1 mM DTT, 10% PEG) in order to form MED1 droplets concentrated with FLTX1.

[3] = tested on: patient-derived ERα mutants and MED1; assay: In vitro droplet assay of patient-derived ERα mutants with MED1; format: biochemical, human; conditions: 100 μM estrogen, 100 μM tamoxifen

T1 sequence (Q15648 600-1581): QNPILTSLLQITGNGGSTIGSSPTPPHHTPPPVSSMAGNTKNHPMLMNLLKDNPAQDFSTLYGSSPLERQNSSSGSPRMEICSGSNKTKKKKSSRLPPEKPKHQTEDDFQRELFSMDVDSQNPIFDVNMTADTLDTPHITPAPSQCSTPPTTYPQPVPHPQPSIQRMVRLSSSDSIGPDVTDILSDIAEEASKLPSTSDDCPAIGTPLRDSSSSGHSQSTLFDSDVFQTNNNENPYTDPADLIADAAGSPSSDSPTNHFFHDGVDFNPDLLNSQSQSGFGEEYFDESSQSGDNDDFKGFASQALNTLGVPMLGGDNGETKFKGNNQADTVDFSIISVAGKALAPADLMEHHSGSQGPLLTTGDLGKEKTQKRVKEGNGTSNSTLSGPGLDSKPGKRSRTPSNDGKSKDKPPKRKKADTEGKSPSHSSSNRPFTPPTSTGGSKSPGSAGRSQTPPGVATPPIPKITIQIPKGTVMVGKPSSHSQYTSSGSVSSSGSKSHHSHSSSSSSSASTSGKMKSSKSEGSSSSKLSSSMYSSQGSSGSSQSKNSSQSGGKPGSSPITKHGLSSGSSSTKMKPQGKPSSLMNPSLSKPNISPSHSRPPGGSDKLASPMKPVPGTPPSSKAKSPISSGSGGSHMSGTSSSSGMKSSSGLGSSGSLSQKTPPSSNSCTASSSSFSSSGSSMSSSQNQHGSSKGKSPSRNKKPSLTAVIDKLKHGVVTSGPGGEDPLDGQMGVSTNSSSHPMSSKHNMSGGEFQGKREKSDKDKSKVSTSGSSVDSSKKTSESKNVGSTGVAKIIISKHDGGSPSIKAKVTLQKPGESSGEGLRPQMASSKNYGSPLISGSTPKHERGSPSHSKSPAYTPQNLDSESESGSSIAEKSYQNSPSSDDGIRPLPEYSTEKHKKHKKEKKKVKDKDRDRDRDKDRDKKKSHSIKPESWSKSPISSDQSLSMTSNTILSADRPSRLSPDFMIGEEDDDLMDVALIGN

CC/C(=C(\c1ccccc1)c1ccc(OCCN(C)C)cc1)c1ccccc1 [tamoxifen]
MED1 condensates at the MYC oncogene [1]: reduces these; also recorded: not in the absence of estrogen or in the presence of estrogen and tamoxifen | reduction of affinity for tamoxifen by ERα point mutations (ERα point mutations): approximately 10 fold | effect on ERα-MED1 condensate at the Lac array when MED1 is overexpressed ([2]; MED1 overexpressed): unable to dissociate the ERα-MED1 condensate | effect on ER/MED1 condensate at the Lac array [2]: eliminated by tamoxifen | effect on ER/MED1 condensate at the Lac array ([2]; listed as Tamoxifen): reduced ER (green) and MED1 (red) containing condensates | chase out of FLTX1 from MED1 droplets (MED1 droplets): diluted out | chase out of FLTX1 from MED1 droplets (MED1 droplets; listed as Tamoxifen): able to chase-out FLTX1 | disruption of ERα mutant/MED1 condensates [3]: not disrupted
